“And” between values parts separate entries of the source, which are not always exact repeats. Equal values may be shown once. A value given as a limit tells only on which side of the number the result lay.

The values below come from paper PMC5216056 (Nature Communications, 2017).

For data set [1] the following is noted: 1 μM.
Another data set addresses T1, PPARgamma (h) (Homo sapiens, UniProt P37231).
T1 construct: CEREP (contract assay)
T1 sequence (P37231 1-505): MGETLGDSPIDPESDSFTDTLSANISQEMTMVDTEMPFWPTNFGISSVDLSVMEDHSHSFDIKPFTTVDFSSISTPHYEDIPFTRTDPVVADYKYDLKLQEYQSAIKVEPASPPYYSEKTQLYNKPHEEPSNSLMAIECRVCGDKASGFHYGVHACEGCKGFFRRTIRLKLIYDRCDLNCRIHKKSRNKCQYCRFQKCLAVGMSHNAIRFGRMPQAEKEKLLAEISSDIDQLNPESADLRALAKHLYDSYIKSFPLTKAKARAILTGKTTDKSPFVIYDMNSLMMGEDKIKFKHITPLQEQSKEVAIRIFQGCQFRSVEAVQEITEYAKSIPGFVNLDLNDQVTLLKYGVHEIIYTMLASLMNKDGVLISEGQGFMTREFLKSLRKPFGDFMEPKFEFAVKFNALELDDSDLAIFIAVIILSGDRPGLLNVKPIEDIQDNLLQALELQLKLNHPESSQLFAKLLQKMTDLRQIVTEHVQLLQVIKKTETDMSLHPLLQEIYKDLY
Put plainly: CEREP panel. It counts as binding. Particulars: 10 µM.

For the next data set, the target named is T2, hCB1R (Homo sapiens, UniProt P21554).
T2 construct: host or cells: CHO
T2 sequence (P21554 whole entry): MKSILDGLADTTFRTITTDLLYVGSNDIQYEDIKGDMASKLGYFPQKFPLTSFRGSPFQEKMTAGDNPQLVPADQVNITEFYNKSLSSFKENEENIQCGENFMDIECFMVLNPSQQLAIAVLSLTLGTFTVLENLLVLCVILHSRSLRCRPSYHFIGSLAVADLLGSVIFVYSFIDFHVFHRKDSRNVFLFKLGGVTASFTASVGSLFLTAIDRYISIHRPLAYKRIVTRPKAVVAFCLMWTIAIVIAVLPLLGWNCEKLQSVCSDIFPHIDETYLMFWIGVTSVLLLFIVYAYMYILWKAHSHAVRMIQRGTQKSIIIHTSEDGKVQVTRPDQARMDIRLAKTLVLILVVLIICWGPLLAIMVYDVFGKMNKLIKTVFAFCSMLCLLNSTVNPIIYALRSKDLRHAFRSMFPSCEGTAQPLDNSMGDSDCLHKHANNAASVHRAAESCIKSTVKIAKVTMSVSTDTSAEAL
In words: biochemical. It counts as biochemical.

In the next data set the test system is AR (h). Put plainly: CEREP panel. Particulars: 10 µM. It counts as binding, human.
The conditions of data set [2]: 1 μM. This is another data set of the same source.
The test system of the next data set is BZD (central). It counts as binding. Particulars: 10 µM.
For a further data set, the target named is T3, Rat recombinant TRPV2 (Rattus norvegicus, UniProt Q9WUD2).
T3 construct: expressed in transfected cells; host or cells: HEK293 (plasmid a gift from HB Bradshaw, Indiana University)
T3 sequence (Q9WUD2 1-761): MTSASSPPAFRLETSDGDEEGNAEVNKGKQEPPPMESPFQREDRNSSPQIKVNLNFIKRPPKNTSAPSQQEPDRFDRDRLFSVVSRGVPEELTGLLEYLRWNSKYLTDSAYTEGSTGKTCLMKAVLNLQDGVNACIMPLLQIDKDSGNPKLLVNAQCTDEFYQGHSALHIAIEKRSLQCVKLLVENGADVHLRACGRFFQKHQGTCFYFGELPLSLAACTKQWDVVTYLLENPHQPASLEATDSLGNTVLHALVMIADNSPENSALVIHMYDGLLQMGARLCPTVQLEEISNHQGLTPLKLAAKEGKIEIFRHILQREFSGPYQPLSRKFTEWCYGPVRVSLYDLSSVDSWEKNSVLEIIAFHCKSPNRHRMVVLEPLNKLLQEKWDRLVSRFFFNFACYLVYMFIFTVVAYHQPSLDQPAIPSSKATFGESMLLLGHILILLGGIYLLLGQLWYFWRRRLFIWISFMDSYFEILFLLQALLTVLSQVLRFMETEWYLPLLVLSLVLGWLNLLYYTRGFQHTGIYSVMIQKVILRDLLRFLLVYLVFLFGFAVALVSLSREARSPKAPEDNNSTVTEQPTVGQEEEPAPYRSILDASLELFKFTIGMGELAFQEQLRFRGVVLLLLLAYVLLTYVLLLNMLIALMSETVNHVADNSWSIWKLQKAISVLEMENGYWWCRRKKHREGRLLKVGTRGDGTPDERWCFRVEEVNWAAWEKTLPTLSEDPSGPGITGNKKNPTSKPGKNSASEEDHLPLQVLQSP
Put plainly: cell-based. It counts as cell-based. Particulars: for EC50: read-out: TRPV2 Potency EC50; for IC50: vs LPC 3μM, read-out: TRPV2 IC50 for antagonism or desensitization.

Another data set deals with T4, kappa (KOP) (Rattus norvegicus, UniProt P34975).
T4 construct: CEREP (contract assay)
T4 sequence (P34975 whole entry): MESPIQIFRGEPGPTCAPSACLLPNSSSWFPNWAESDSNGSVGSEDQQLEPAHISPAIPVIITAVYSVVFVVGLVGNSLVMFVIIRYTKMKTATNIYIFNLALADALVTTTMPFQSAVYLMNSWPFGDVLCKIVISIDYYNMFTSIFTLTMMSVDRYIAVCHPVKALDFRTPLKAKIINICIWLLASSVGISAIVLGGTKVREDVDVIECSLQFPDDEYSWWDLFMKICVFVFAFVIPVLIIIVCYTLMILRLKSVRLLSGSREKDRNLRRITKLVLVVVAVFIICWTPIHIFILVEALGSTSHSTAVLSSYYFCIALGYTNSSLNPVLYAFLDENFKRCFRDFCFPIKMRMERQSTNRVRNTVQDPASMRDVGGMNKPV
In words: CEREP panel. It is filed as binding. Particulars: 10 µM.

A further data set concerns the target T5, FAAH (Homo sapiens, UniProt O00519).
T5 construct: host or cells: U937
T5 sequence (O00519 1-579): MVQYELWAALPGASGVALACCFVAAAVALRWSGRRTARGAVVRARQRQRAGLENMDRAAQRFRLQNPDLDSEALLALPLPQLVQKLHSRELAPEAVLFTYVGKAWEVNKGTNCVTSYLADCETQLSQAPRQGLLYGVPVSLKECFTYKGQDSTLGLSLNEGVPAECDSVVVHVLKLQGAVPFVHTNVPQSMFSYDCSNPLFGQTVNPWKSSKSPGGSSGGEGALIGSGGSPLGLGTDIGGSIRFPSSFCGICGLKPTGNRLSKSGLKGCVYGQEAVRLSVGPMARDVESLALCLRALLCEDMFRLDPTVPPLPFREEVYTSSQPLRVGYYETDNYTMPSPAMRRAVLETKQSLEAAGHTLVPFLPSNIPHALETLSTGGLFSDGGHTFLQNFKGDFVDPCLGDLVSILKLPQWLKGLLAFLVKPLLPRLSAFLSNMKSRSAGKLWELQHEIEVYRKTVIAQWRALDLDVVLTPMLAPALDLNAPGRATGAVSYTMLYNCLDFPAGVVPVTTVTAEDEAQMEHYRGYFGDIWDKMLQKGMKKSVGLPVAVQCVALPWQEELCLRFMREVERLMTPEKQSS
Put plainly: FAAH activity, U937 cell homogenate. Particulars: 5 µM, U937 cell homogenate. It counts as biochemical. The protocol: FAAH activity was assessed using U937 cell homogenate (source: U937 cells were purchased from ATCC, Manassas, VA, USA). Tested compounds (at the concentrations of 1 and 5 μM) or solvent (≤1% of the final volume) were pre-incubated at 37 °C for 30 min with 100 μg of cell homogenate diluted in assay buffer (10 mM Tris-HCl and 1 mM EDTA, pH 7.6 and 1% w/v fatty acid-free BSA). Successively, a mixture of 99.5 nM […] of AEA and 0.5 nM of [ethanolamine-1-3H]-AEA (40–60 Ci mmol^−1) was added to the homogenate (final concentration of 100 nM) and incubated for 10 min at 37 °C under shaking. After the incubation time, 2 volumes of an ice-cold methanol: chloroform mixture 1:1 (v/v) were added to each sample, vigorously vortexed and centrifuged at 10,000g for 10 min at 4 °C to separate aqueous and organic phases. The aqueous phases were collected and the radioactivity associated with the hydrolysis product [3H]-ethanolamine was measured after addition of 3 ml of scintillation cocktail using the Tri-Carb 2100 TR scintillation counter. Data were collected from three independent experiments performed in triplicate and results were expressed as FAAH activity, relative to that in vehicle-treated samples (=100%).

The next data set concerns the target T6, Rat recombinant TRPA1 (Rattus norvegicus, UniProt Q6RI86).
T6 construct: expressed in transfected cells
Put plainly: cell-based. It counts as cell-based. Particulars: for EC50: read-out: TRPA1 Potency EC50; for IC50: vs AITC 100μM, 5 min pre-incubation, read-out: TRPA1 IC50 for antagonism or desensitization.

For the next data set, the target named is T7, hGPR55 (Homo sapiens, UniProt Q9Y2T6).
T7 construct: host or cells: CHO-K1 (PathHunter hGPR55_bgal)
T7 sequence (Q9Y2T6 whole entry): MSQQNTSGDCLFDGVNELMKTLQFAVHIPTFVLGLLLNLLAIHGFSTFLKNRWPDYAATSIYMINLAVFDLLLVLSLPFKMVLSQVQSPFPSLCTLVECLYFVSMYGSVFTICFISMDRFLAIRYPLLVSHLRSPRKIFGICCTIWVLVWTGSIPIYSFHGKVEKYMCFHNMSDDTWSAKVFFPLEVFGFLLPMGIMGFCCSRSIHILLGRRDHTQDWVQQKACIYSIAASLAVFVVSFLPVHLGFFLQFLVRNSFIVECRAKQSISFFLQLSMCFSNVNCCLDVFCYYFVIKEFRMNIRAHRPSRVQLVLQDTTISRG
Put plainly: cell-based. Particulars: β-arrestin recruitment. On the technique in general: Activated receptors often draw arrestin, which recruitment assays turn into a signal.

T6 sequence (Q6RI86 whole entry): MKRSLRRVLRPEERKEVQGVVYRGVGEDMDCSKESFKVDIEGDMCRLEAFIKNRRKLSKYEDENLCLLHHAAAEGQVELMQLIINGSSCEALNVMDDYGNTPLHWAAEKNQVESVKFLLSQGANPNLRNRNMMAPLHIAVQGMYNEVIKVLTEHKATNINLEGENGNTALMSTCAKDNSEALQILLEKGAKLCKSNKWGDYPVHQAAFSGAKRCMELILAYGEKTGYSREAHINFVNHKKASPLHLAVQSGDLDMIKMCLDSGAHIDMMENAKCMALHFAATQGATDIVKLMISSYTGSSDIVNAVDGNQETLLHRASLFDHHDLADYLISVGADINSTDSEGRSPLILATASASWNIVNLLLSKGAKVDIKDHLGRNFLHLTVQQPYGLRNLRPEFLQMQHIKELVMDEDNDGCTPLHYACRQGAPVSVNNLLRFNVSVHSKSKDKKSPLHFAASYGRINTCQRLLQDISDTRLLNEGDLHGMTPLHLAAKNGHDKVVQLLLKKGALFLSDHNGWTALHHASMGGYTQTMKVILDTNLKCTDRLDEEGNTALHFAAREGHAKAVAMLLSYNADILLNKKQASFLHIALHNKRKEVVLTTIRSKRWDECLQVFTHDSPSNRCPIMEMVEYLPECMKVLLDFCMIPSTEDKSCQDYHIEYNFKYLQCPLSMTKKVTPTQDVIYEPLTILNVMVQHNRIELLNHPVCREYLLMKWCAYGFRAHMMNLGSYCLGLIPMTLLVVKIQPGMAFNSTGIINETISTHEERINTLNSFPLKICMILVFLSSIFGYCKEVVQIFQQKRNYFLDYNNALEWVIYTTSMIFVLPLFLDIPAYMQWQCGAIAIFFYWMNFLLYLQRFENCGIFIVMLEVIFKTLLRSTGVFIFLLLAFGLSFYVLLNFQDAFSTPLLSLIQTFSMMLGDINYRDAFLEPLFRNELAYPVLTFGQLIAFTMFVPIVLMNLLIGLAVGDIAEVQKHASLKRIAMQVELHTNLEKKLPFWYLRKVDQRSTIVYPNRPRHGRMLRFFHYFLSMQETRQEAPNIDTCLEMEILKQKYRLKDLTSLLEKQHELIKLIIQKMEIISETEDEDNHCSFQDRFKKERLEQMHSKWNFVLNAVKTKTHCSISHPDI

As to `CN1CCCC[C@H]1Cn1cc(C(=O)c2cc([N+](=O)[O-])ccc2I)c2ccccc21` [(S)-AM1241], the CL microsomes human in [1] came out at 152 µL/min/mg protein. Further, the “% inhibition PPARgamma (h)” value at PPARgamma (h) is 23%. Moreover, on hCB1R, the “pEC50 ± SEM GTPγS hCB1R” value was below 5. Besides, the “% inhibition AR (h)” value in the data set with AR (h) came out at 1%. The compound further yielded a CL hepatocytes human in data set [2] of 37 µL/min/mio cells. In addition, the “% inhibition BZD (central)” value with BZD (central) is recorded as -1%. At Rat recombinant TRPV2, the “TRPV2 Efficacy (% ionomycin 4μM)” value is reported as 11.6%; the EC50 (commonly the concentration giving half of the maximal effect) stood at 5 µM; the IC50 (as a rule, the concentration at which inhibition is half-maximal) turned out to be 20.6 µM. Moreover, on kappa (KOP), the “% inhibition kappa (KOP)” value turned out to be 87%. For the same compound, the “FAAH % inhibition at 5 µM” value at FAAH is on record as below 25%. In addition, on Rat recombinant TRPA1, the “TRPA1 Efficacy (%AITC 100μM)” value was 47.5%, the EC50 was found to be 5.8 µM and the IC50 was determined as 40.9 µM.
Regarding `COc1ccc(C(=O)c2c(C)n(CCN3CCOCC3)c3cc(I)ccc23)cc1` [AM630], the CL microsomes human in data set [1] worked out at 82 µL/min/mg protein. In addition, the “% inhibition PPARgamma (h)” value at PPARgamma (h) worked out at 99%. The “% inhibition AR (h)” value with AR (h) is -7%. The CL hepatocytes human in [2] is 16 µL/min/mio cells. Further, at hGPR55, the “GPR55 pEC50 (± SEM)” value is below 5. In addition, the “% inhibition BZD (central)” value in the data set with BZD (central) was -12%. On Rat recombinant TRPV2, the “TRPV2 Efficacy (% ionomycin 4μM)” value is given as below 10% and the IC50 was 35.6 µM. Moreover, the “% inhibition kappa (KOP)” value at kappa (KOP) is 57%. In addition, on Rat recombinant TRPA1, the “TRPA1 Efficacy (%AITC 100μM)” value was 118.0% and 118±2%; the EC50 came out at 1.9 µM; the IC50 stood at 3.7 ± 0.5 µM.
The compound `Cc1ccc2c(c1)Cc1c(C(=O)NN3CCCCC3)nn(-c3ccc(Cl)cc3Cl)c1-2` [Gp-1a] gave a CL microsomes human in data set [1] of 13 µL/min/mg protein. For the same compound, the “% inhibition PPARgamma (h)” value on PPARgamma (h) is 86%. In addition, on hCB1R, the “pEC50 ± SEM GTPγS hCB1R” value is given as below 5. Further, in the data set on AR (h), the “% inhibition AR (h)” value was -8%. This compound came in with a CL hepatocytes human in [2] of 32 µL/min/mio cells. Also, the “GPR55 pEC50 (± SEM)” value at hGPR55 is listed as below 5. In addition, the “% inhibition BZD (central)” value with BZD (central) is reported as -10%. Further, at Rat recombinant TRPV2, the “TRPV2 Efficacy (% ionomycin 4μM)” value is reported as below 10% and the IC50 stood at 11.9 µM. Further, the “% inhibition kappa (KOP)” value at kappa (KOP) is given as 99%. The “FAAH % inhibition at 5 µM” value at FAAH is < 50% and 30–40%. In addition, on Rat recombinant TRPA1, the “TRPA1 Efficacy (%AITC 100μM)” value is 83.6% and 84 ± 1%; the EC50 is 2.1 µM; the IC50 is 10.4 µM.
In [1], `Cc1c(C(=O)c2cccc3ccccc23)c2cccc3c2n1[C@H](CN1CCOCC1)CO3` [WIN55212-2] came in with a CL microsomes human of 194 µL/min/mg protein. Also, on PPARgamma (h), the “% inhibition PPARgamma (h)” value stood at 39%. The “% inhibition AR (h)” value with AR (h) stood at 8%. Moreover, the CL hepatocytes human in [2] is recorded as 42 µL/min/mio cells. The “GPR55 pEC50 (± SEM)” value at hGPR55 was below 5. The “% inhibition BZD (central)” value in the data set with BZD (central) came out at 4%. Also, on Rat recombinant TRPV2, the “TRPV2 Efficacy (% ionomycin 4μM)” value turned out to be 17.0%, the EC50 was 14.8 µM and the IC50 is 62 µM. Besides, the “% inhibition kappa (KOP)” value on kappa (KOP) is 79%. For the same compound, the “FAAH % inhibition at 5 µM” value on FAAH is below 25%. Also, on Rat recombinant TRPA1, the “TRPA1 Efficacy (%AITC 100μM)” value is 72.3% and 72 ± 1%; the EC50 was determined as 2.3 µM; the IC50 came to 6.4 ± 0.6 µM.
